Measurements published in patent EP0039085A1, “Process for increasing the solubility of aromatic systems” (Langhals, Heinz, Dr., priority 1980, dated 1981).

What was measured:
[1] = Absolute fluorescence quantum yield; format: physicochemical
[2] = Solubility in organic solvents: effect of tert-butyl substitution; format: physicochemical; conditions: for Löslichkeitssteigerung um einen Faktor: relative to unsubstituted Rubicen (I)
Text: Der Einfluß der Substitution mit tert.-Butylgruppen wurde an folgenden Systemen untersucht.

Molecule: CC(C)(C)c1ccccc1N1C(=O)c2ccc3c4ccc5c6c(ccc(c7ccc(c2c37)C1=O)c64)C(=O)N(c1ccccc1C(C)(C)C)C5=O [Beispiel 3, N,N'-Di-(2-tert.-butyl)-perylen-3,4,9,10-tetracarbonsäure-diimid]
- Fluoreszenzquantenausbeute (absolut) η ([1]; Chloroform): 1,0
- Fluoreszenzquantenausbeute (absolut) η ([1]; Dimethylformamid (DMF)): 0,94

Molecule: CC(C)(C)c1ccc(N2C(=O)c3ccc4c5ccc6c7c(ccc(c8ccc(c3c48)C2=O)c75)C(=O)N(c2ccc(C(C)(C)C)cc2)C6=O)cc1 [Beispiel 4, N,N'-Di-(4-tert.-butylphenyl)-perylen-3,4,9,10-tetra-carbonsäurediimid]
- Fluoreszenzquantenausbeute (absolut) η ([1]; Dimethylformamid (DMF)): 0,88

Molecule: O=C1c2ccc3c4ccc5c6c(ccc(c7ccc(c2c37)C(=O)N1c1ccccc1)c64)C(=O)N(c1ccccc1)C5=O [III, reference compound]
- Löslichkeit ([2]; in organischen Lösungsmitteln): sehr geringe

Molecule: Di-tert.-butylrubicen
- Löslichkeitssteigerung um einen Faktor ([2]; in n-Hexan bei Zimmertemperatur): ca. 100
- Löslichkeitssteigerung um einen Faktor ([2]; in Äthanol bei Zimmertemperatur): ca. 100

Molecule: Tetra-tert.-butylrubicen
- erhöhte die Löslichkeit um einen Faktor ([2]; solvent not restated (preceding sentence: Äthanol und n-Hexan bei Zimmertemperatur), relative to Rubicen): ca. 10
